Data on 19 compounds can be found in US4782154A, “Isoquinoline derivatives” (Mitsui Toatsu Chemicals, Inc., priority 1986, dated 1988).

Each structure is given as a SMILES string.

In the assay the test system is Mongrel dogs. The assay is described as follows: Recovery of LV dP/dtmax in propranolol-induced heart failure state, anesthetized dogs (Test Example 1). The class given is in vivo. Particulars: iv; for ED100: Canis lupus familiaris, dose required for recovering the reduction in LV dP/dtmax to the value before propranolol administration, anesthetized mongrel dogs; for Blood pressure: change in BP at ED100, variation coefficient relative to the values of the stable (heart failure) state; for Blood pressure / Number of heart beat: dogs; for Number of heart beat: change in HR at ED100, variation coefficient relative to the values of the stable (heart failure) state. How it is done:
Mongrel dogs of either sex, weighing 8 to 12 kg, were anesthetized with sodium pentobarbital (30 mg/kg i.v.). The left ventricular pressure (LVP) was measured with a sensor tip transducer and the maximum rate of rise of LVP (LV dP/dtmax) was calculated by an electronic differentiator. Polyethylene cannulae were inserted into the femoral artery to measure systemic blood pressure (BP) and into the femoral veins for administration or infusion of chemicals. BP was measured with a pressure transducer and heart rate (HR) by a cardiotachometer from the pressure pulse. The respective parameters were simultaneously recorded on a multichannel polygraph.
To induce and maintain heart failure state, propranolol was administered in a bolus injection (4 mg/kg i.v.) followed by an infusion (0.1 mg/kg/min i.v.). […] The dose of tested chemicals required for recovering the reduction in the LV dP/dtmax to the value before the propranolol administration was determined and defined as an ED100. The changes in BP and HR at ED100 were expressed by the variation coefficient relative to the values of the stable state.

`CCc1[nH]c(=O)c(C(C)=O)c2c1CC(c1ccncc1)CC2` (stereo not drawn) [Example 1, 4-acetyl-1-ethyl-7-(4-pyridyl)-5,6,7,8-tetrahydro-3(2H)isoquinolinone]: the ED100 was 1 mg/kg, the Blood pressure is -32.1% and the “Number of heart beat” value is “+17.3%”.

For `CCCCc1[nH]c(=O)c(C(C)=O)c2c1CC(c1ccncc1)CC2` (stereo not drawn) [Example 2, 4-acetyl-1-butyl-7-(4-pyridyl)-5,6,7,8-tetrahydro-3-(2H)isoquinolinone], the ED100 stood at 3 mg/kg, the Blood pressure is -11.5% and the “Number of heart beat” value was “+18.3%”.

As to `CC(=O)c1c2c(c(C3CC3)[nH]c1=O)CC(c1ccncc1)CC2` (stereo not drawn) [Example 3], the ED100 was determined as 3 mg/kg, the Blood pressure is recorded as -27.8% and the “Number of heart beat” value is on record as “+30.6%”.

For the compound `CCC(=O)c1c2c(c(C)[nH]c1=O)CC(c1ccncc1)CC2` (stereo not drawn) [Example 4, 1-methyl-4-propionyl-7-(4-pyridyl)-5,6,7,8-tetrahydro-3(2H)isoquinolinone], the ED100 was 3 mg/kg, the Blood pressure was -18.0% and the “Number of heart beat” value is listed as “+26.2%”.

On to `CCCC(=O)c1c2c(c(C)[nH]c1=O)CC(c1ccncc1)CC2` (stereo not drawn) [Example 5, 4-butylyl-1-methyl-7-(4-pyridyl)5,6,7,8-tetrahydro-3(2H)isoquinolinone], for which the ED100 was 3 mg/kg, the Blood pressure is on record as -20.2% and the “Number of heart beat” value is recorded as “+23.7%”.

Take `CCCCC(=O)c1c2c(c(C)[nH]c1=O)CC(c1ccncc1)CC2` (stereo not drawn) [Example 6, 1-methyl-7-(4-pyridyl)5,6,7,8-tetrahydro-4-valeryl-3(2H)isoquinolinone]: the ED100 is 3 mg/kg, the Blood pressure was -10.5% and the “Number of heart beat” value is given as “+19.8%”.

In the case of `Cc1[nH]c(=O)c(C(=O)c2ccccc2)c2c1CC(c1ccncc1)CC2` (stereo not drawn) [Example 7, 4-benzoyl-1-methyl-7-(4-pyridyl)5,6,7,8-tetrahydro-3(2H)isoquinolinone], the ED100 worked out at 3 mg/kg, the Blood pressure was -28.3% and the “Number of heart beat” value is given as “+29.6%”.

For the compound `CCc1c2c(c(C)[nH]c1=O)CC(c1ccncc1)CC2` (stereo not drawn) [Example 8, 4-ethyl-1-methyl-7-(4-pyridyl)-5,6,7,8-tetrahydro-3(2H)isoquinolinone], the ED100 was 0.03 mg/kg, the Blood pressure was -22.5% and the “Number of heart beat” value is reported as “+25.3%”.

As to `CCCc1c2c(c(C)[nH]c1=O)CC(c1ccncc1)CC2` (stereo not drawn) [Example 9, 1-methyl-4-propyl-7-(4-pyridyl)-5,6,7,8-tetrahydro-3(2H)isoquinolinone], the ED100 was 0.3 mg/kg, the Blood pressure is reported as -16.6% and the “Number of heart beat” value is “+14.4%”.

As to `Cc1[nH]c(=O)c(C=O)c2c1CC(c1ccncc1)CC2` (stereo not drawn) [Example 10, 4-formyl-1-methyl-7-(4-pyridyl)-5,6,7,8-tetrahydro-3(2H)isoquinolinone], the ED100 stood at 3 mg/kg, the Blood pressure is given as -17.5% and the “Number of heart beat” value is given as “+24.2%”.

Consider `Cc1[nH]c(=O)c(C)c2c1CC(c1ccncc1)CC2` (stereo not drawn) [Example 11, 1,4-dimethyl-7-(4-pyridyl)-5,6,7,8-tetrahydro-3(2H)isoquinolinone], for which the ED100 was found to be 0.3 mg/kg, the Blood pressure is recorded as -28.5% and the “Number of heart beat” value is reported as “+21.0%”.

With `Cc1[nH]c(=O)c(C(C)O)c2c1CC(c1ccncc1)CC2` (stereo not drawn) [Example 12, 4-(1-hydroxyethyl)-1-methyl-7-(4-pyridyl)-5,6,7,8-tetrahydro-3(2H)isoquinolinone], the ED100 amounted to 3 mg/kg, the Blood pressure is -19.7% and the “Number of heart beat” value is given as “+22.5%”.

Regarding `Cc1[nH]c(=O)c(CO)c2c1CC(c1ccncc1)CC2` (stereo not drawn) [Example 13, 4-(hydroxymethyl)-1-methyl-7-(4-pyridyl)-5,6,7,8-tetrahydro-3(2H)isoquinolinone], the ED100 was found to be 0.3 mg/kg, the Blood pressure is on record as -2.6% and the “Number of heart beat” value is recorded as “+20.0%”.

Turning to `Cc1[nH]c(=O)c(C(C)(C)O)c2c1CC(c1ccncc1)CC2` (stereo not drawn) [Example 14, 4-(2-(2-hydroxypropyl))-1-methyl-7-(4-pyridy)-5,6,7,8-tetrahydro-3(2H)isoquinolinone], the ED100 was 0.1 mg/kg, the Blood pressure is -9.3% and the “Number of heart beat” value is reported as “+32.6%”.

On to `C=C(C)c1c2c(c(C)[nH]c1=O)CC(c1ccncc1)CC2` (stereo not drawn) [Example 15, 4-isopropenyl-1-methyl-7-(4-pyridyl)-5,6,7,8-tetrahydro-3(2H)isoquinolinone], for which the ED100 was 0.03 mg/kg, the Blood pressure is listed as -16.4% and the “Number of heart beat” value is reported as “+28.6%”.

`Cc1[nH]c(=O)c(C(F)(F)C(F)(F)F)c2c1CC(c1ccncc1)CC2` (stereo not drawn) [Example 16, 1-methyl-4-pentafluoroethyl-7-(4-pyridyl)-5,6,7,8-tetrahydro-3(2H)isoquinolinone]: the ED100 turned out to be 3 mg/kg, the Blood pressure is -15.9% and the “Number of heart beat” value is “+29.1%”.

Take `CCc1c2c(c(C)[nH]c1=O)CC(c1ccccn1)CC2` (stereo not drawn) [Example 17, 4-ethyl-1-methyl-7-(2-pyridyl)-5,6,7,8-tetrahydro-3(2H)isoquinolinone]: the ED100 is 0.1 mg/kg, the Blood pressure is -2.1% and the “Number of heart beat” value was “+15.0%”.

For the compound `Cc1[nH]c(=O)c(C(C)(C)O)c2c1CC(c1ccccn1)CC2` (stereo not drawn) [Example 18, 4-(2-(2-hydroxypropyl))-1-methyl-7-(2-pyridyl)-5,6,7,8-teterahydro-3(2H)isoquinolinone], the ED100 stood at 0.3 mg/kg, the Blood pressure is -8.3% and the “Number of heart beat” value is “+30.1%”.

As for `C=C(C)c1c2c(c(C)[nH]c1=O)CC(c1ccccn1)CC2` (stereo not drawn) [Example 19, 4-isopropenyl-1-methyl-7-(2-pyridyl)-5,6,7,8-teterahydro-3(2H)isoquinolinon], the ED100 stood at 0.1 mg/kg, the Blood pressure was -15.9% and the “Number of heart beat” value is recorded as “+27.6%”.
